Experimental data taken from PubChem BioAssay AID1963868 (Molecular Pharmacology Branch, DTP, NCI, 2024).

System: KRAS PDC tumor spheroids (HUVEC+MSC), viability
Assay: Anticancer human tumor 254851-301-R-J1-PDC patient-derived colon carcinoma cell line growth inhibition [KRAS2]
Settings: for IC50: curve of first compound; for viability, T/C: stronger effect = lower value
Excerpt: Multicellular complex tumor spheroid response to RAS pathway inhibitors in combination with a targeted agents in patient-derived cell lines with oncogenic KRAS variants from multiple cancer types
A high-throughput screen of multi-cell type tumor spheroids was designed to identify active combinations of targeted small molecules and KRAS pathway inhibitors. Complex spheroids include a stromal component modeled by human endothelial cells (HUVEC) and fibroblasts modeled by human mesenchymal stem cells (MSCs). The concentration ranges selected for each drug and investigational agent were based upon clinically achievable concentrations if the clinical Cmax of the agent was known.
Compounds. The drugs and investigational agents: BI-3406 (NSC825286), BAY-293 (NSC824723), batoprotafib (TNO155; NSC825523), sotorasib (AMG 510; NSC818433), MRTX1257 (NSC819558), elimusertib (BAY 1895344; NSC800525), molibresib (GSK525762; NSC774829), temuterkib (LY3214996; NSC803410), venetoclax (NSC766270), alisertib (NSC759677), olaparib (NSC753686), talazoparib (NSC767125), erdafitinib (NSC781556), ipatasertib (NSC767898), cabozantinib (NSC761068), nintedanib (NSC756659), abemaciclib (NSC768073), docetaxel (NSC628503), trametinib (NSC758246), and sapanisertib (NSC764658) were obtained from the National Cancer Institute (NCI) Developmental Therapeutics Program Chemical Repository. The FDA-approved anticancer drug set is available from the Developmental Therapeutics Program. […] The stock solutions were prepared in dimethyl sulfoxide (DMSO, Sigma-Aldrich, St. Louis, MO, cat. D2650) at 800-fold the tested concentration and stored at -70 degrees C prior to their use. All drugs and investigational agents were tested over a range starting from a high concentration at or near the clinical Cmax and decreasing in half-log increments. If the clinical Cmax for an agent had not been determined, the highest concentration tested was 10 microM.
Cell Culture. All cells were maintained in an incubator at 37 degrees C and 5% CO2 with 95% humidity. The PDC lines were cultured according to standard operating procedures established by the NCI PDMR (https://pdmr.cancer.gov/sops/default.htm). Briefly, all PDCs were thawed and cultured in Matrigel-coated flasks prepared with a working solution of 1X Ham's F-12 nutrient mix, without supplementation (Invitrogen, Waltham, MA, cat. 11765054), 100 U/mL penicillin-streptomycin (Invitrogen, cat. 15140122), and 2.5% Matrigel (Corning Inc., Corning, NY, cat. 354248) for the first three passages. All PDCs were cultured in complete DMEM/F-12 media containing advanced DMEM/F-12 (Invitrogen, cat. 12634028), 4.9% defined fetal bovine serum, heat inactivated (HyClone Laboratories Inc., Logan, UT, cat. SH30070.03HI), 389 ng/mL hydrocortisone (Sigma-Aldrich, cat. H4001), 9.7 ng/mL human EGF recombinant protein (Invitrogen, cat. PHG0313), 23.4 microg/mL adenine (Sigma-Aldrich, cat. A2786), 97.3 U/mL penicillin-streptomycin (Invitrogen, cat. 15140122), 1.9 mM L-glutamine (Invitrogen, cat. 25030081), and 9.7 microM Y-27632 dihydrochloride (Tocris Bioscience, Bristol, United Kingdom, cat. 1254). The PDCs were cultured in complete DMEM/F12 media without 9.7 microM Y-27632 dihydrochloride for at least two passages prior to the screen. The established cell line HOP-62 was cultured in RPMI 1640 medium, HEPES (Invitrogen, cat. 22400105) with 10% defined fetal bovine serum (HyClone Laboratories Inc., cat. SH30070.03) and 2 mM L-glutamine (Invitrogen, cat. 25030081). The pooled donor HUVEC were cultured in endothelial cell growth medium 2 (PromoCell, Heidelberg, Germany, cat. C-22011) and the hMSC were cultured in mesenchymal stem cell growth medium 2 (PromoCell, cat. C-28009). For all experiments, HUVEC and hMSC were used at passages </=5, while the malignant cell lines were used at passages </=15. […]

[1] = second compound 0.1 µM, first compound 0.01 µM
[2] = second compound 0.1 µM, first compound 0.0316 µM
[3] = second compound 0.1 µM, first compound 0.1 µM
[4] = second compound 0.1 µM, first compound 0.316 µM
[5] = second compound 0.1 µM, first compound 1 µM
[6] = second compound 0.316 µM, first compound 0.01 µM
[7] = second compound 0.316 µM, first compound 0.0316 µM
[8] = second compound 0.316 µM, first compound 0.1 µM
[9] = second compound 0.316 µM, first compound 0.316 µM
[10] = second compound 0.316 µM, first compound 1 µM
[11] = second compound 1 µM, first compound 0.01 µM
[12] = second compound 1 µM, first compound 0.0316 µM
[13] = second compound 1 µM, first compound 0.1 µM
[14] = second compound 1 µM, first compound 0.316 µM
[15] = second compound 1 µM, first compound 1 µM
[16] = second compound 3.16 µM, first compound 0.01 µM
[17] = second compound 3.16 µM, first compound 0.0316 µM
[18] = second compound 3.16 µM, first compound 0.1 µM
[19] = second compound 3.16 µM, first compound 0.316 µM
[20] = second compound 3.16 µM, first compound 1 µM
[21] = second compound 10 µM, first compound 0.01 µM
[22] = second compound 10 µM, first compound 0.0316 µM
[23] = second compound 10 µM, first compound 0.1 µM
[24] = second compound 10 µM, first compound 0.316 µM
[25] = second compound 10 µM, first compound 1 µM
[26] = second compound 0.1 µM, first compound 3.16 µM
[27] = second compound 0.1 µM, first compound 10 µM
[28] = second compound 0.316 µM, first compound 3.16 µM
[29] = second compound 0.316 µM, first compound 10 µM
[30] = second compound 1 µM, first compound 3.16 µM
[31] = second compound 1 µM, first compound 10 µM
[32] = second compound 3.16 µM, first compound 3.16 µM
[33] = second compound 3.16 µM, first compound 10 µM
[34] = second compound 10 µM, first compound 3.16 µM
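Note: spheroids exposed to compounds for seven days before readout.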
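Throughout, for viability, T/C: 100% = DMSO vehicle control luminescence of the spheroids.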

## CCN1CCN(Cc2ccc(Nc3ncc(F)c(-c4cc(F)c5nc(C)n(C(C)C)c5c4)n3)nc2)CC1 + COc1cc2nc(C)nc(NC(C)c3cc(N)cc(C(F)(F)F)c3)c2cc1OC1CCOC1
Second compound 0.1 µM
  IC50: 0.573 µM
Second compound 0.316 µM
  IC50: 0.578 µM
Second compound 1 µM
  IC50: 0.549 µM
Second compound 3.16 µM
  IC50: 0.12 µM
Second compound 10 µM
  IC50: 0.0666 µM
Second compound 0.1 µM, first compound 0.00316 µM
  viability, T/C: 97.6%
[1]
  viability, T/C: 98.1%
[2]
  viability, T/C: 96%
[3]
  viability, T/C: 80.6%
[4]
  viability, T/C: 66.2%
[5]
  viability, T/C: 35.7%
Second compound 0.316 µM, first compound 0.00316 µM
  viability, T/C: 93.2%
[6]
  viability, T/C: 92.6%
[7]
  viability, T/C: 92.2%
[8]
  viability, T/C: 72.2%
[9]
  viability, T/C: 67.9%
[10]
  viability, T/C: 36.2%
Second compound 1 µM, first compound 0.00316 µM
  viability, T/C: 90.3%
[11]
  viability, T/C: 88.9%
[12]
  viability, T/C: 86.7%
[13]
  viability, T/C: 76.8%
[14]
  viability, T/C: 63.1%
[15]
  viability, T/C: 36.3%
Second compound 3.16 µM, first compound 0.00316 µM
  viability, T/C: 63.5%
[16]
  viability, T/C: 70%
[17]
  viability, T/C: 55.3%
[18]
  viability, T/C: 49.9%
[19]
  viability, T/C: 43.3%
[20]
  viability, T/C: 26%
Second compound 10 µM, first compound 0.00316 µM
  viability, T/C: 83.2%
[21]
  viability, T/C: 74.5%
[22]
  viability, T/C: 69.7%
[23]
  viability, T/C: 39.1%
[24]
  viability, T/C: 17.8%
[25]
  viability, T/C: 7.16%

## Cn1nccc1Nc1nccc(-c2cc3c(s2)C(C)(C)N(CCN2CCOCC2)C3=O)n1 + C=CC(=O)N1CCN(c2nc(OCC3CCCN3C)nc3c2CCN(c2cccc4cccc(C)c24)C3)CC1CC#N
Second compound 0.0316 µM
  IC50: 2.32 µM
Second compound 0.1 µM
  IC50: 3.14 µM
Second compound 0.316 µM
  IC50: 2.54 µM
Second compound 1 µM
  IC50: 1.66 µM
Second compound 3.16 µM
  IC50: 1.3 µM
Second compound 0.0316 µM, first compound 0.0316 µM
  viability, T/C: 99.1%
Second compound 0.0316 µM, first compound 0.1 µM
  viability, T/C: 112%
Second compound 0.0316 µM, first compound 0.316 µM
  viability, T/C: 89.8%
Second compound 0.0316 µM, first compound 1 µM
  viability, T/C: 82%
Second compound 0.0316 µM, first compound 3.16 µM
  viability, T/C: 38.4%
Second compound 0.0316 µM, first compound 10 µM
  viability, T/C: 4.17%
[2]
  viability, T/C: 89.9%
[3]
  viability, T/C: 89.9%
[4]
  viability, T/C: 95.3%
[5]
  viability, T/C: 94.1%
[26]
  viability, T/C: 49.8%
[27]
  viability, T/C: 3.82%
[7]
  viability, T/C: 112%
[8]
  viability, T/C: 92.3%
[9]
  viability, T/C: 91.2%
[10]
  viability, T/C: 75.9%
[28]
  viability, T/C: 43%
[29]
  viability, T/C: 3.62%
[12]
  viability, T/C: 71.3%
[13]
  viability, T/C: 74.5%
[14]
  viability, T/C: 68.6%
[15]
  viability, T/C: 66.7%
[30]
  viability, T/C: 29.3%
[31]
  viability, T/C: 2.36%
[17]
  viability, T/C: 81.9%
[18]
  viability, T/C: 74.3%
[19]
  viability, T/C: 63%
[20]
  viability, T/C: 62.4%
[32]
  viability, T/C: 11.8%
[33]
  viability, T/C: 0.25%

## COc1cc(Nc2ncc3c(n2)-c2ccc(Cl)cc2C(c2c(F)cccc2OC)=NC3)ccc1C(=O)O + C=CC(=O)N1CCN(c2nc(=O)n(-c3c(C)ccnc3C(C)C)c3nc(-c4c(O)cccc4F)c(F)cc23)C(C)C1
Second compound 0.1 µM
  IC50: 0.0897 µM
Second compound 0.316 µM
  IC50: 0.107 µM
Second compound 1 µM
  IC50: 0.0592 µM
Second compound 3.16 µM
  IC50: 0.11 µM
Second compound 10 µM
  IC50: 0.122 µM
[2]
  viability, T/C: 86%
[3]
  viability, T/C: 40%
[4]
  viability, T/C: 32.7%
[5]
  viability, T/C: 28.6%
[26]
  viability, T/C: 18.9%
[27]
  viability, T/C: 9.83%
[7]
  viability, T/C: 86.7%
[8]
  viability, T/C: 45.4%
[9]
  viability, T/C: 35%
[10]
  viability, T/C: 28.8%
[28]
  viability, T/C: 19.5%
[29]
  viability, T/C: 10.7%
[12]
  viability, T/C: 56.4%
[13]
  viability, T/C: 43.1%
[14]
  viability, T/C: 36.6%
[15]
  viability, T/C: 29.3%
[30]
  viability, T/C: 21.4%
[31]
  viability, T/C: 12.3%
[17]
  viability, T/C: 77.6%
[18]
  viability, T/C: 45%
[19]
  viability, T/C: 39.1%
[20]
  viability, T/C: 29.1%
[32]
  viability, T/C: 19.2%
[33]
  viability, T/C: 13.6%
[22]
  viability, T/C: 93.3%
[23]
  viability, T/C: 47.6%
[24]
  viability, T/C: 38.4%
[25]
  viability, T/C: 32.4%
[34]
  viability, T/C: 22.4%
Second compound 10 µM, first compound 10 µM
  viability, T/C: 17.5%

## CC1COCCN1c1cc(-c2ccnn2C)c2ccnc(-c3ccn[nH]3)c2n1 (stereo not given) + C=CC(=O)N1CCN(c2nc(=O)n(-c3c(C)ccnc3C(C)C)c3nc(-c4c(O)cccc4F)c(F)cc23)C(C)C1
Second compound 0.1 µM
  IC50: 0.299 µM
Second compound 0.316 µM
  IC50: 0.288 µM
Second compound 1 µM
  IC50: 0.369 µM
Second compound 3.16 µM
  IC50: 0.0797 µM
Second compound 10 µM
  IC50: 0.186 µM
[1]
  viability, T/C: 112%
[2]
  viability, T/C: 96.8%
[3]
  viability, T/C: 65.9%
[4]
  viability, T/C: 50%
[5]
  viability, T/C: 35.4%
[26]
  viability, T/C: 22%
[6]
  viability, T/C: 96.5%
[7]
  viability, T/C: 96.8%
[8]
  viability, T/C: 74.2%
[9]
  viability, T/C: 47.6%
[10]
  viability, T/C: 32.1%
[28]
  viability, T/C: 23.5%
[11]
  viability, T/C: 87.6%
[12]
  viability, T/C: 85.3%
[13]
  viability, T/C: 66.9%
[14]
  viability, T/C: 51.6%
[15]
  viability, T/C: 36.7%
[30]
  viability, T/C: 20.8%
[16]
  viability, T/C: 74.5%
[17]
  viability, T/C: 70.3%
[18]
  viability, T/C: 45.2%
[19]
  viability, T/C: 27.3%
[20]
  viability, T/C: 29.7%
[32]
  viability, T/C: 34.8%
[21]
  viability, T/C: 103%
[22]
  viability, T/C: 87.3%
[23]
  viability, T/C: 59.5%
[24]
  viability, T/C: 40.8%
[25]
  viability, T/C: 29.9%
[34]
  viability, T/C: 22.5%
